Common to all, as to assay type: cell-based
Assay [1] concerns Glycopeptide intermediate-resistant (GISA) S. aureus Mu-50 (ATCC 700695). As to the kind of experiment: MIC determination (EUCAST, Mueller-Hinton broth). The note with it: Staphylococcus aureus, ATCC700695. As to the method: (§1) Further experiments were conducted using different strains of S. aureus, as clinically relevant Gram-positive bacterial strains: ATCC 25904, ATCC 6538, methilcillin-resistant S. aureus (MRSA) ATCC BAA-1556, Glycopeptide intermediate-resistant (GISA) S. aureus Mu-50 (ATCC 700695) in order to determine the Minimal Inhibitory Concentration (MIC) which is the minimal concentration required to prevent bacterial growth; the Minimal Bactericidal Concentration (MBC) which determines the lowest concentration at which an antimicrobial agent kill a particular microorganism and a Minimum Duration for killing 99.9% bacteria (MDK99.9) which is a tolerance metric according to the EUCAST.
(§2) MIC determination: A single colony selected from the different strains of S. aureus is resuspended and cultured in the appropriate medium overnight (O/N) in aerobic conditions (37° C. with 220 rpm shaking), next day a 1:100 inoculum in Mueller-Hinton broth (MHB) was incubated in aerobic conditions for 3 hr (OD=0.08-0.1) and an inoculum of 1:300 dilution, corresponding to 3×10^5 CFU/ml, was incubated in presence or absence of different concentrations of Triafluocyl in 1% DMSO. After O/N growth the OD of each culture was measured at 600 nm in a spectrophotometer (OD600). The MIC represents the concentration at which there is no visible growth of bacteria, i.e. ΔOD at 600 nm equal to zero (blank is the medium alone). MIC for Triafluocyl against S. aureus ATCC 25904, ATCC 6538, methilcillin-resistant S. aureus (MRSA) ATCC BAA-1556, Glycopeptide intermediate-resistant (GISA), and S. aureus Mu-50 (ATCC 700695) were 20, 20, 15, and 20 μg/ml, respectively.
(§3) The Minimal Inhibitory Concentration (MIC) and the Minimal Bactericidal Concentration (MBC) of Fluometacyl were determined on several gram-positive strains (Table 2) following EUCAST (European Committee on Antimicrobial susceptibility Testing) recommendations.
(§4) For MIC determination a single colony was resuspended and cultured in the appropriate bacteria-specific medium (TSB: Tryptic Soy Broth for S. aureus atcc 25904 and S. epidermidis and BHI: brain-heart infusion medium for all the other strains) overnight (O/N) in aerobic conditions (37° C. with 220 rpm shaking), next day a 1:100 inoculum was incubated in Mueller-Hinton broth (MHB) in aerobic conditions for 3 hr (OD600=0.08-0.1). A further inoculum, 1:300 dilution of the MHB culture, corresponding to 3×10^5 CFU/ml, was grown in presence or absence of different concentrations of Fluometacyl, 1% DMSO in MHB for 20 hr.

A further assay deals with S. aureus ATCC 25904. As to the kind of experiment: MIC determination (EUCAST, Mueller-Hinton broth). The note with it: Staphylococcus aureus, ATCC25904. As to the method:
as §1, §2, §3, §4

In assay [2] the test system is methilcillin-resistant S. aureus (MRSA) ATCC BAA-1556. As to the kind of experiment: MIC determination (EUCAST, Mueller-Hinton broth). The note with it: Staphylococcus aureus. As to the method: as §1, §2, §3, §4
In assay [3] the test system is Pseudomonas aeruginosa (ATCC 27853). As to the kind of experiment: MIC determination with or without C12(ω7)Kβ12 (OAK). The following applies: for MIC: Pseudomonas aeruginosa, ATCC27853, in presence of 10 μg/ml OAK (C12(ω7)Kβ12). As to the method: Determination of Minimal Inhibitory Concentration (MIC) of Triafluocyl (Cayman Chemical, Item No. 15425) in presence of C12(ω7)Kβ12 (provided by Custom synthesis Biomers Germany) against Pseudomonas aeruginosa (ATCC 27853).
A single colony of Pseudomonas aeruginosa grown on a Tryptic Soy agar (TSA) plate is resuspended and cultured in Tryptic Soy Broth (TSB) medium overnight (O/N) in aerobic conditions (37° C. with 190 rpm shaking in New Brunswick Innova 4200 Incubator Shaker). Next day the resulting inoculum is diluted again at 1:100 in Mueller-Hinton broth (MHB) and then incubated in aerobic conditions for 1 h30 (OD=0.08-0.1) to reach an exponential phase in the grown curve. A resulting inoculum corresponding to around 5×10^5 colony forming unit (CFU)/ml, is further incubated in presence or absence of different concentrations (10 and 20 μg/ml) of Triafluocyl in 2% DMSO with or without C12(ω7)Kβ12 for 18 hr in aerobic conditions (37° C. with 190 rpm shaking in New Brunswick Innova 4200 Incubator Shaker). Growth of Pseudomonas aeruginosa in each condition depicted in FIG. 15A is evaluated by reading the OD of each culture at 600 nm (OD600) in a spectrophotometer (Fisher Scientific, cell density meter model 40).
Determination of Minimal Inhibitory Concentration (MIC) of Fluometacyl (prepared according to WO99/0514) in presence of C12(ω7)Kβ12 (provided by Biomers.net Germany) against Pseudomonas aeruginosa (ATCC 27853). The C12(ω7)Kβ12 was synthesized by solid-phase method as described by I. Radzishevsky in Antimicrobial Agents and Chemotherapy, May 2007 (1753-1759) (https://aac.asm.org/content/51/5/1753)
A single colony of Pseudomonas aeruginosa grown on a Tryptic Soy agar (TSA) plate is resuspended and cultured in Tryptic Soy Broth (TSB) medium overnight (O/N) in aerobic conditions (37° C. with 220 rpm shaking in New Brunswick Innova 4200 Incubator Shaker). Next day the resulting inoculum is diluted again at 1:100 in Mueller-Hinton broth (MHB) and then incubated in aerobic conditions for 1 h30 (OD=0.08-0.1) to reach an exponential phase in the grown curve. A resulting inoculum corresponding to around 5×10^5 colony forming unit (CFU)/ml, is further incubated in presence or absence of different concentrations (10 and 20 μg/ml) of Fluometacyl in 2% DMSO with or without C12(ω7)Kβ12 for 18 hr in aerobic conditions (37° C. with 190 rpm shaking in New Brunswick Innova 4200 Incubator Shaker). Growth of Pseudomonas aeruginosa in each condition depicted in FIG. 16A is evaluated by reading the Optical Density of each culture at 600 nm (OD600) in a spectrophotometer (Fisher Scientific, cell density meter model 40).

Broadly, the MIC is the lowest concentration that inhibits growth of the organism.

On to `CCCSc1nc(N[C@@H]2C[C@H]2c2ccc(F)c(F)c2)c2nnn([C@@H]3C[C@H](O)[C@@H](O)[C@H]3O)c2n1` [Fluometacyl, (1S,2R,3S,4R)-4-[7-[[(1R,2S)-2-(3,4-Difluorophenyl)cyclopropyl]amino]-5-(propylthio)-3H-1,2,3-triazolo[4,5-d]pyrimidin-3-yl]-1,2,3-cyclopentanetriol], for which the MIC was 30 to 38 µM in assay [1] (S. aureus MU50 GISA), 30 to 38 µM in the assay on S. aureus ATCC 25904, 20 to 30 µM in assay [2] and 20 µg/mL in assay [3]. In assay [3] (taken alone at a concentration of 20 μg/ml), the “inhibition of P. aeruginosa growth” value is on record as “unable to inhibit P. aeruginosa growth”.
Take `CCCSc1nc(N[C@@H]2C[C@H]2c2ccc(F)c(F)c2)c2nnn([C@@H]3C[C@H](OCCO)[C@@H](O)[C@H]3O)c2n1` [Triafluocyl, (1S,2S,3R,5S)-3-[7-[(1R,2S)-2-(3,4-difluorophenyl)cyclopropylamino]-5-(propylthio)-3H-[1,2,3]-triazolo[4,5-d]pyrimidin-3-yl]-5-(2-hydroxyethoxy)-1,2-cyclopentanediol]: the MIC in assay [1] (S. aureus Mu50 GISA) is 20 µg/mL; against S. aureus ATCC 25904, 20 µg/mL; in assay [2] it was 15 µg/mL; in assay [3], 10 µg/mL. In addition, in assay [3] (taken alone at a concentration of 10 μg/ml), the “inhibition of P. aeruginosa growth” value is reported as “unable to inhibit P. aeruginosa growth”.

For the origin of these results see patent US10905691B2, “Use of triazolo(4,5-d)pyrimidine derivatives for prevention and treatment of bacterial infection” (Universite de Liege, priority 2016, dated 2021).
